We go through 16 molecules from US4857508A, “Novel platelet-aggregation inhibitor peptide derivatives” (Monsanto Company, priority 1987, dated 1989).

Where two headings read alike, the source gives them in different places. Non-standard residues stand in square brackets, D forms with d. Residues, ends and D or L forms follow the SMILES beside them.

Usually IC50 stands for the concentration that gives 50% inhibition. One may read the inhibition as the percentage by which the read-out fell short of the control. Low readings indicate a weak effect, high ones a strong effect. Usually % Inhibition stands for the percentage by which the read-out fell short of the control. Lower therefore signals little suppression.

The target in assay [1] is washed human platelets (Homo sapiens, UniProt P05106+P08514). As to the kind of experiment: Inhibition of thrombin-induced platelet aggregation in washed human platelets. Format: cell-based. Particulars: for IC50: linear regression of dose response curve; for inhibition at 100 µM: peptide 10^-4 M. The protocol: In one assay, the peptides are tested for their inhibition of thrombin-induced platelet aggregation in washed human platelets. The % inhibition is determined for the test peptide by comparing the extent of platelet aggregation in the presence and absence of the peptide.
washed human platelets, sequence (P08514 32-1039): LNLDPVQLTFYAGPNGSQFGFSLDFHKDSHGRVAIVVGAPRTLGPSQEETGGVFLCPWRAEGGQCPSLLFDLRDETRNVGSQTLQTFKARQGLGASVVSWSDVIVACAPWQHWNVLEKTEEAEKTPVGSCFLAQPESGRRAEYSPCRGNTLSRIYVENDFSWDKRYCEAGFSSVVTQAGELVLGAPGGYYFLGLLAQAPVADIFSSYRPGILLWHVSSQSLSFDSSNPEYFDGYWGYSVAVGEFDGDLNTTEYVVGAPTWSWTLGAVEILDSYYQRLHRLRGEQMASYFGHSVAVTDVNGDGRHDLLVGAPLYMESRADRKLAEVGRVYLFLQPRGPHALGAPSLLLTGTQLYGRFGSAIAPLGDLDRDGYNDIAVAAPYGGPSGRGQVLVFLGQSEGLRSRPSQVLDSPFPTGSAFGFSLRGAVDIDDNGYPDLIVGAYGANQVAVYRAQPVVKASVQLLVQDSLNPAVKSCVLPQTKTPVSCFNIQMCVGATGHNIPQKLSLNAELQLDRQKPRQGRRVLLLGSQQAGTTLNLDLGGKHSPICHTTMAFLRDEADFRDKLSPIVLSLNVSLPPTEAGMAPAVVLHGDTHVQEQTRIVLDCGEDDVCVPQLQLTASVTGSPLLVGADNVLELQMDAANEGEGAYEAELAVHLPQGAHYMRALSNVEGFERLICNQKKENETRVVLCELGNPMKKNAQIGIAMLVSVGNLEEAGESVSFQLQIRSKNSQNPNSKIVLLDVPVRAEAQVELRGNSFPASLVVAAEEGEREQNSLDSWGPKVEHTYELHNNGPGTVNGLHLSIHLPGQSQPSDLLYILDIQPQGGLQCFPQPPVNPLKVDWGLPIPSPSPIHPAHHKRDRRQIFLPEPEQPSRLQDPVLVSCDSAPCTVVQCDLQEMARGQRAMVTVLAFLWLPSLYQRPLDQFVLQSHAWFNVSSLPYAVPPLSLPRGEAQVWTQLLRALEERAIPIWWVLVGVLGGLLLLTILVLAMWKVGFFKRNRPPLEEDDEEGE
washed human platelets, sequence (P05106 27-788): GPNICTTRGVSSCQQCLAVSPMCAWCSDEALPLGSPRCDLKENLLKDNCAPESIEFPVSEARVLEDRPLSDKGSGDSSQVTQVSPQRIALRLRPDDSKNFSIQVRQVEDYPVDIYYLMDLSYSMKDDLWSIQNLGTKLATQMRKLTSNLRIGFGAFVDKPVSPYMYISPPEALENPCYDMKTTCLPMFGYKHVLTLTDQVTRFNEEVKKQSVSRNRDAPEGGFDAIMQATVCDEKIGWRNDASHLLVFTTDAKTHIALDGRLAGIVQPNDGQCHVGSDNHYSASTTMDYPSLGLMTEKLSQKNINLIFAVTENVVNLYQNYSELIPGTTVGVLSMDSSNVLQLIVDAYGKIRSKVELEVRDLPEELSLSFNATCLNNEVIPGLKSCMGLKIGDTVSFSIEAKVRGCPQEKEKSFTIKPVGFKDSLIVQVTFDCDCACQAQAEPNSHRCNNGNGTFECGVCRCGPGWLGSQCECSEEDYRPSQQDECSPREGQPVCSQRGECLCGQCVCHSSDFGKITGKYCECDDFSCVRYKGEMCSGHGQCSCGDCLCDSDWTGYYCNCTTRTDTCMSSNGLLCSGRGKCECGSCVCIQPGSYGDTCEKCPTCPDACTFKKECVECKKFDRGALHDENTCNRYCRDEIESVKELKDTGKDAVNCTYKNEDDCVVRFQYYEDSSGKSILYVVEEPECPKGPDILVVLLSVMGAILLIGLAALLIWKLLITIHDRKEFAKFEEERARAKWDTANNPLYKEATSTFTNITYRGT
Platelet Preparation: 60 ml of whole blood is freshley drawn and anticoagulated with 1/10th volume of CCD (100 mM Na Citrate and 136 mM glucose, pH 6.5 with HCl) at room temperature (RT). The blood is divided into 2 disposable 60 ml plastic centrifuge tubes and centrifuged for 3 minutes at 1000×g, allowing the centrifuge to coast to a stop (no brake). The platelet rich plasma (PRP) is withdrawn, being careful that no white cells are taken and is placed in a 60 ml centrifuge tube. The tube is immediately placed on ice for 15 minutes. After the 15 minutes at 0° C., 1/2 volume of ice cold CCD is added (i.e. 15 ml CCD/30 ml of PRP). The tube is mixed and the contents are divided equally into two centrifuge tubes. These are then centrifuged at 0° C. for 10 minutes at 900×g (no brake). The supernatant is carefully poured off. The platelet pellet is gently resuspended in 1/2 the original volume of PRP in a 0° C. modified Tangen-Hepes-BSA buffer, pH 7.4, consisting of 145 mM NaCl, 5 mM KCl, 0.05 mM CaCl2, 0.1 mM MgCl2, 11 mM glucose, 15 mM Hepes (N-2-hydroxyethylpiperazine-N'-2-ethanesulfonic acid), 1 mg/ml bovine serum albumin, (pH adjusted with NaOH). The resuspended pellets are combined into 1 centrifuge tube and incubated undisturbed at 37° C. for 30 minutes. After the incubation, the platelet suspension is removed and an aliquot is quickly counted in a hemocytometer or a Coulter® Counter (Coulter Electronics, Hialeah, Fla.). The platelet count is adjusted to 3×10^8 cells/ml with the Tangen-Hepes-BSA buffer.
Compound Testing: Aggregation studies are accomplished using a Payton aggregometer (Payton Scientific, Inc., Buffalo, N.Y.). […] All compounds are diluted to a working concentration of 10^-3 M with double distilled water. The reaction mixture consisted of 400 μl of 3×10^8 /ml washed platelets, 50 μl of buffer (control) or test compound at 10^-3 M with a final concentration of 10^-4 M. Platelets, test compound or buffer are placed in cuvettes in the aggregometer for a 1 minute preincubation before adding thrombin. 50 μl of 0.5 U/ml thrombin is added to cuvettes and the aggregation is monitored for 1 minute, which is the time for maximal aggregation of the platelets. All compounds are run in duplicate. The entire test is run within 3 hours, since this is the maximal viability of the platlets.

Assay [2] concerns the target human platelets in platelet-rich plasma (Homo sapiens, UniProt P05106+P08514). Put plainly: In-vitro human platelet aggregation in platelet-rich plasma (PRP), ADP-induced. Format: cell-based. Particulars: for IC50: linear regression of dose response curve. The protocol:
In another assay, platelet aggregation is examined in platelet-rich plasma which also is rich in fibrinogen and other plasma proteins.
The syringe is rotated carefully as blood is being drawn to mix the citrate. Platelet-rich plasma (PRP) is prepared by centrifugation at 100×g for 10 minutes at room temperature, allowing the centrifuge to coast to a stop without braking. The PRP is removed from the blood with a plastic pipette and placed in a plastic, capped, 50 ml Corning conical sterile centrifuge tube. The tube is capped and placed at room temperature. Platelet poor plasma (PPP) is prepared by centrifuging the remaining blood at 2000×g for 15 minutes at room temperature allowing the centrifuge to coast to a stop without braking. The PRP is adjusted with PPP to a count of 2-3×10^8 platelets per ml. 400 μl of the PRP preparation and 50 μl of the compound to be tested or saline were preincubated for 1 minute at 37° C. in a Payton aggregometer (Payton Scientific, Inc., Buffalo, NY). 50 μl of adenosine 5'diphosphate (ADP) (50 μM) is added to the cuvettes and the aggregation is monitored for 1 minute. All compounds are tested in duplicate. The entire procedure is run within 3 hours, since this is the maximal viability of the platelets. The saline instead of compound is used to determine the maximal aggregation.

Assay [3] has as its system collagen induced thrombocytopenia (platelet aggregation). Put plainly: In vivo rat thrombocytopenia (collagen induced). The conditions noted are these: for inhibition in the in vivo thrombocytopenia assay: dose not printed there; for % Inhibition at 1 mg/kg: collagen 60 μg/kg. The protocol: In yet another test, the effect of the peptide on collagen induced thrombocytopenia (platelet aggregation) is measured in vivo in the art. Again, the % inhibition is determined for the test peptide and compared against a saline or ethanol vehicle in the absence of peptide.
Male rats (Charles River, CRL:CD(SD), 400-450 g) were used. The rats were anesthetized with Na pentabarbital (65 mg/kg, Vet Labs, Limited, Inc., Lenexa, KA). Two incisions were made to expose both jugular veins. Using an infusion pump (Harvard Apparatus, South Natick, Mass.) and a 5 cc syringe with a 19 g. butterfly, the test compound or vehicle was infused into the left jugular vein at a rate of 0.39 ml/min for 3 min. After 2 min of compound/vehicle infusion, collagen (60 μg/kg) (Helena Laboratories,Beaumont, TX) was injected with a 1 ml syringe into the right jugular vein. The body cavity was opened and the vena cava was exposed for blood sampling. One min after the collagen injection, compound infusion was stopped and blood was sampled from the vena cava (within 30 sec) with a 3 cc syringe containing […] of 4.5% EDTA/Tris (0.1M) (pH 7.35) plus 150 μM indomethacin. Platelet rich plasma (PRP) was prepared by centrifuging the blood at 126× g for 10 min. Five μl of PRP was counted in 20 ml of Isoton® III in a Coulter Counter. Percent inhibition of collagen induced aggregation was calculated by comparison of the number of platelets counted in treated animals with numbers for animals receiving no collagen and with counts from animals receiving vehicle and collagen. Estimation of potency was based on inhibition of collagen-induced thrombocytopenia.
Four animals were tested with each compound to give the data shown.

human platelets in platelet-rich plasma, sequence (P08514 32-1039): as the sequence (P08514 32-1039) above
human platelets in platelet-rich plasma, sequence (P05106 27-788): as the sequence (P05106 27-788) above

Take `COc1ccc(C[C@H](NC(=O)[C@H](CC(=O)O)NC(=O)CNC(=O)[C@@H](N)CCCNC(=N)N)C(N)=O)cc1` [RGD(O--methyl-Tyr)--NH2, Arg-Gly-Asp-(O-methyltyrosine)-amide] (H-RGDY(Me)-NH2): the IC50 amounted to 20 µM in assay [1] and 30 µM in assay [2] (read-out: IC50). The inhibition at 100 µM worked out at 79% in assay [1] and 100% in assay [2] (peptide 10^-4 M).

Regarding `COc1ccc(C[C@H](NC(=O)[C@H](CC(=O)O)NC(=O)CNC(=O)CCCCNC(=N)N)C(N)=O)cc1` [des-NH2 --RGD(O--methyl-Tyr)--NH2, des-amino-Arg-Gly-Asp-(O-methyltyrosine)-amide], the half-inhibitory concentration (IC50) in assay [1] stood at 10 µM; in assay [2] (read-out: IC50), 20 µM. The inhibition at 100 µM in assay [1] is 90%; in assay [2] (peptide 10^-4 M), 100%.

For `NC(=O)[C@H](Cc1ccccc1)NC(=O)[C@H](CC(=O)O)NC(=O)CNC(=O)[C@@H](N)CCCN=C(N)N` [RGDF--NH2, reference compound] (H-RGDF-NH2), the IC50 was 10 µM in assay [1] and 20 µM in assay [2] (read-out: IC50).

For the molecule `N=C(N)NCCC[C@H](NC(=O)CN)C(=O)NCC(=O)N[C@@H](CC(=O)O)C(=O)N[C@@H](CO)C(=O)N1CCC[C@H]1C(N)=O` [GRGDSP--NH2, reference compound], the inhibition at 100 µM in assay [1] was found to be 55%; in assay [2] (peptide 10^-4 M), 23%.

With `COc1ccc(CC(NC(=O)[C@H](CC(=O)O)NC(=O)CNC(=O)[C@@H](N)CCCNC(=N)N)C(N)=O)c2ccccc12` (stereo partly drawn) [RGD(4-methoxy-1-naphthyl-Ala)--NH2, Arg-Gly-Asp-(4-methoxy-1-naphthylalanine)-amide], the IC50 in assay [2] (read-out: IC50) stood at 10 µM. At 100 µM the inhibition in assay [2] (peptide 10^-4 M) was 100%.

With `CC(=O)N[C@@H](CCCNC(=N)N)C(=O)NCC(=O)N[C@@H](CC(=O)O)C(=O)N[C@@H](Cc1ccc(O)cc1)C(N)=O` [Ac--RGDY--NH2] (Ac-RGDY-NH2), the results for the inhibition at 100 µM in assay [1] and in assay [2] (peptide 10^-4 M) were 68% and 48%, respectively. Moreover, the “inhibition in the in vivo thrombocytopenia assay” value in assay [3] came out at 85%. Also, the “% Inhibition at 1 mg/kg” value in assay [3] (rat, i.v. infusion) is 85%.

Turning to `CC(=O)N[C@@H](CCCN=C(N)N)C(=O)NCC(=O)N[C@@H](CC(=O)O)C(=O)N[C@@H](Cc1ccc(O)cc1)C(N)=O` [Ac--RGDY--NH2] (Ac-RGDY-NH2), in assay [1], the IC50 stood at 50 µM.

On to `N=C(N)NCCC[C@H](N)C(=O)NCC(=O)N[C@@H](CC(=O)O)C(=O)N[C@@H](CO)C(=O)O` [RGDS, Arg-Gly-Asp-Ser, reference compound], for which the inhibition at 100 µM in assay [1] was 71%; in assay [2] (peptide 10^-4 M) it was 25%.

In the case of `COc1ccc(C[C@H](NC(=O)[C@H](CC(=O)O)NC(=O)CNC(=O)CCCCCNC(=N)N)C(N)=O)cc1` [des-amino-(homoarginine)-Gly-Asp-(O-methyltyrosine)-amide], the IC50 is 10 µM in assay [1] and 20 µM in assay [2] (read-out: IC50). Also, the results for the inhibition at 100 µM in assay [1] and in assay [2] (peptide 10^-4 M) were 82% and 100%, respectively.

Regarding `N=C(N)NCCC[C@H](N)C(=O)NCC(=O)N[C@@H](CC(=O)O)C(=O)N[C@@H](Cc1ccccc1)C(N)=O` [RGDF--NH2, reference compound] (H-RGDF-NH2), the inhibition at 100 µM turned out to be 77% in assay [1] and 100% in assay [2] (peptide 10^-4 M).

On to `COc1ccc(C[C@H](NC(=O)[C@H](CC(=O)O)NC(=O)CNC(=O)[C@@H](CCCNC(=N)N)NC(C)=O)C(N)=O)cc1` [Ac--(D-Arg)GD(O--methyl-Tyr)--NH2, acetyl-(D-Arg)-Gly-Asp-(O-methyltyrosine)-amide] (Ac-[dR]GDY(Me)-NH2), for which the inhibition at 100 µM in assay [2] (peptide 10^-4 M) worked out at 71%.

For the molecule `COc1ccc(C[C@H](NC(=O)[C@H](CC(=O)O)NC(=O)CNC(=O)[C@H](CCCNC(=N)N)NC(C)=O)C(N)=O)cc1` [Ac--RGD(O--methyl-Tyr)--NH2, acetyl-Arg-Gly-Asp-(O-methyltyrosine)-amide] (Ac-RGDY(Me)-NH2), the IC50 in assay [1] and in assay [2] (read-out: IC50) was 20 µM each time. For the same molecule, the inhibition at 100 µM is 78% in assay [1] and 100% in assay [2] (peptide 10^-4 M). Also, the “% Inhibition at 1 mg/kg” value in assay [3] (rat, i.v. infusion) amounted to 86%.

In turn, `CCOc1ccc(C[C@H](NC(=O)[C@H](CC(=O)O)NC(=O)CNC(=O)[C@@H](N)CCCNC(=N)N)C(N)=O)cc1` [RGD(O--ethyl-Tyr)--NH2, Arg-Gly-Asp-(O-ethyltyrosine)-amide] (H-RGDY(Et)-NH2) returned an inhibition at 100 µM in assay [1] of 54%.

Consider “Arg-Gly-Asp-(p-phenyl-phenylalanine)-amide [RGD(p-phenyl-Phe)--NH2]”, for which the “% Inhibition at 10^-4 M” value in assay [2] (peptide 10^-4 M) is 100%.

With `N=C(N)NCCC[C@H](N)C(=O)NCC(=O)N[C@@H](CC(=O)O)C(=O)N[C@@H](Cc1ccc(O)cc1)C(N)=O` [RGDY--NH2, reference compound] (H-RGDY-NH2), at 100 µM the inhibition in assay [1] was 45%. Moreover, in assay [3], the “inhibition in the in vivo thrombocytopenia assay” value was determined as 19%. Also, the “% Inhibition at 1 mg/kg” value in assay [3] (rat, i.v. infusion) was 19 ± 12%. Besides, the “Maximum Inhibition %” value in assay [3] (rat, i.v. infusion, collagen induced thrombocytopenia) was found to be 20%.

`COc1cc(C)c(CC(NC(=O)[C@H](CC(=O)O)NC(=O)CNC(=O)[C@@H](N)CCCNC(=N)N)C(N)=O)c(C)c1` (stereo partly drawn) [RGD(2,6-dimethyl-O--methyl-Tyr)--NH2, Arg-Gly-Asp-(2,6-dimethyl-O-methyltyrosine)amide]: the IC50 was found to be 20 µM in assay [1] and 90 µM in assay [2]. Also, the inhibition at 100 µM is 78% in assay [1] and 53% in assay [2] (peptide 10^-4 M).
